Reference: the supplement of paper PMC10307832

Legend:
Assay in all cases: relative viability (nuclei count vs DMSO), 5 days (fraction); higher = more cells survive
[1] = compound: CCN1CCC(CC1)N2C=C(N=N2)CNC3=CC4=C(C(=CN=C4C(=C3)Cl)C#N)NC5=CC(=C(C=C5)F)Cl [KIN001-266] + N=C(N)NC(=N)NCCc1ccccc1 [Phenformin] (partner 250 µM)
In short: (§1)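 Nuclei were stained with Hoechst during a one-step fixation (final 0.05% Triton X-100, 1% formaldehyde, 1 ug/ml Hoechst) carried out 5 days after dosing, then counted on 4× images. The cells, lung cancer lines in 1536-well plates, had been dosed by pin tool the day after seeding with one drug alone or a fixed anchor-drug dose plus five library-drug doses (not always all listed) in √10 steps. Relative viability is the nuclei count in treated wells divided by that in vehicle wells, and each value is the median of duplicate plates.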

[2] = compound: CCN1CCC(CC1)N2C=C(N=N2)CNC3=CC4=C(C(=CN=C4C(=C3)Cl)C#N)NC5=CC(=C(C=C5)F)Cl [KIN001-266] + CC(=O)Nc1cccc(-n2c(=O)n(C3CC3)c(=O)c3c(Nc4ccc(I)cc4F)n(C)c(=O)c(C)c32)c1 [Trametinib] (partner 0.02 µM)
In short: as §1

[3] = compound: CCN1CCC(CC1)N2C=C(N=N2)CNC3=CC4=C(C(=CN=C4C(=C3)Cl)C#N)NC5=CC(=C(C=C5)F)Cl [KIN001-266] + COc1cccc2cc(-c3nc([C@H]4CC[C@H](C(=O)O)CC4)n4ncnc(N)c34)[nH]c12 [OSI-027] (partner 0.5 µM)
In short: as §1

[4] = compound: CCN1CCC(CC1)N2C=C(N=N2)CNC3=CC4=C(C(=CN=C4C(=C3)Cl)C#N)NC5=CC(=C(C=C5)F)Cl [KIN001-266]
In short: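 Lung cancer cell lines in 1536-well plates were exposed by pinning to five library-drug doses (not always all listed) √10 apart, following an overnight hold at 37 °C. MetaXpress counted Hoechst-stained nuclei from 4× images taken after 5 days without medium change. Viability is the median ratio of treated-well to vehicle-well nuclei across plates. Plates required control CV below 25% and at least one doubling.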

Cell Line	relative viability ([1]; first compound 0.08 µM)	relative viability ([1]; first compound 0.253 µM)	relative viability ([1]; first compound 2.53 µM)	relative viability ([1]; first compound 8 µM)	relative viability ([2]; first compound 0.08 µM)	relative viability ([2]; first compound 0.253 µM)	relative viability ([2]; first compound 0.8 µM)	relative viability ([2]; first compound 2.53 µM)	relative viability ([2]; first compound 8 µM)	relative viability ([3]; first compound 0.08 µM)	relative viability ([3]; first compound 0.253 µM)	relative viability ([3]; first compound 2.53 µM)	relative viability ([3]; first compound 8 µM)	relative viability ([4]; 0.08 µM)	relative viability ([4]; 0.253 µM)	relative viability ([4]; 0.8 µM)	relative viability ([4]; 2.53 µM)	relative viability ([4]; 8 µM)	relative viability ([1]; first compound 0.8 µM)	relative viability ([3]; first compound 0.8 µM)
HCC-78	0.714	0.664	0.656	0.806	0.747	0.705	0.667	0.838	0.753	0.34	0.39	0.308	0.37	0.964	0.998	0.913	0.99	0.956	–	–
HCC-366	0.657	0.644	0.567	0.509	0.446	0.468	0.32	0.334	0.277	1.14	0.977	0.826	0.412	1.02	1.01	0.992	1.01	0.969	0.596	0.936
HCC-827	0.439	0.404	0.318	0.286	0.489	0.577	0.468	0.545	0.49	0.682	0.787	0.734	0.661	1.03	1.05	0.715	1.08	0.98	0.189	0.495
HOP-62	0.683	0.694	0.734	0.629	0.391	0.387	0.379	0.311	0.293	0.888	0.893	0.765	0.797	1.01	1.05	1.02	1.02	0.995	0.688	0.877
IA-LM	–	–	–	–	–	–	–	–	–	–	–	–	–	0.95	0.956	0.888	1	0.931	–	–
LC-2-ad	0.622	0.647	0.637	0.576	0.924	0.938	0.918	0.897	0.931	0.844	0.94	0.776	0.77	1.05	0.997	0.947	1.04	0.962	0.629	0.825
LCLC-97TM1	0.414	0.442	0.41	0.407	0.18	0.185	0.199	–	0.164	0.636	0.69	0.557	0.532	0.942	0.853	0.917	0.866	0.906	0.413	0.45
LCLC-103H	0.389	0.28	0.361	0.332	0.715	0.73	0.592	0.645	0.668	0.49	0.469	0.484	0.469	1.08	1.04	1.08	1.06	1.02	0.285	0.452
LK-2	0.538	0.352	0.281	0.288	0.891	0.781	0.877	0.847	0.721	0.215	0.187	0.168	0.222	1.14	0.885	1.2	0.969	1.12	0.342	0.199
LOU-NH91	0.716	0.737	0.637	0.552	0.83	0.753	0.698	0.727	0.748	0.753	0.76	0.608	0.546	1.07	1.04	0.737	0.85	0.845	0.489	0.434
LU99A	0.971	0.805	0.649	0.682	0.546	0.489	0.494	0.552	0.458	0.285	0.303	0.269	0.29	0.985	0.952	0.958	0.847	0.849	0.815	0.301
LXF-289	0.497	0.522	0.534	0.54	0.678	0.683	0.683	0.679	0.708	0.788	0.843	0.788	0.678	0.949	0.984	1	1	1.06	0.497	0.775
NCI-H23	0.826	0.715	0.722	0.73	0.435	0.419	0.484	0.356	0.377	0.651	0.618	0.398	0.485	1.01	1.03	0.935	0.917	0.858	0.772	0.541
NCI-H322M	0.841	0.835	0.743	0.747	0.487	0.515	0.5	0.479	0.497	0.56	0.598	0.458	0.579	1.04	1	0.928	0.785	0.779	0.822	0.593
NCI-H1299	–	–	–	–	–	–	–	–	–	–	–	–	–	0.987	0.996	1	0.928	0.869	–	–
NCI-H1563	0.663	0.694	0.583	0.62	–	–	–	–	–	0.794	0.745	0.758	0.756	0.958	1	1.02	1.04	0.972	0.669	0.875
NCI-H1648	–	–	–	–	0.564	0.508	0.552	0.46	0.61	0.28	0.256	0.257	0.273	0.853	0.859	0.893	0.823	0.966	–	0.273
NCI-H1703	–	–	–	–	–	–	–	–	–	–	–	–	–	1.06	0.873	0.954	0.789	0.806	–	–
